According to ChEMBL document CHEMBL5579878, “Allosteric Activation of Protein Phosphatase 5 with Small Molecules” (J Med Chem, 2024):
Changes are numbered by the printed parent chain. Activity calls are given as the source filed them. The rule behind the calls is not given here.

How the values were obtained:
[1] = target: T1, Tyrosine-protein phosphatase non-receptor type 11 (Homo sapiens) (UniProt Q06124); experiment: Inhibition of SHP2 (unknown origin) using DiFMUP as substrate at 0.01 to 1000 uM; conditions: dose 0.01-1000 µM
T1 sequence (whole entry): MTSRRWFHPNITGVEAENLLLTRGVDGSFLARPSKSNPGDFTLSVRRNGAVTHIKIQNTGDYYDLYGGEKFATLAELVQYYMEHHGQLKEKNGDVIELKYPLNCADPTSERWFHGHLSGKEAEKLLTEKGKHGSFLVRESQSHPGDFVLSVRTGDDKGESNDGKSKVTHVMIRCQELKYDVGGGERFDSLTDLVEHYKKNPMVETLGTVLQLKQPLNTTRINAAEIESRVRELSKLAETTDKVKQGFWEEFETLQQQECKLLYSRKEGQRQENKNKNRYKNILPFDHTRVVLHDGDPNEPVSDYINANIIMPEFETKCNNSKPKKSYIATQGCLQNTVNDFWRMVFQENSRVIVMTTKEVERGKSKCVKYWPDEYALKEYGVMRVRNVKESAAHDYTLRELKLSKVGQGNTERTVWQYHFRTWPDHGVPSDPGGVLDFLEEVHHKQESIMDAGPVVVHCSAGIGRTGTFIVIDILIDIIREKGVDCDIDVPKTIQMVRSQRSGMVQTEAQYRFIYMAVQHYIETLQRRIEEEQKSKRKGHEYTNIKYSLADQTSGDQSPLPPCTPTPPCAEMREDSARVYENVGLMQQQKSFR

HCT-116 [2] = experiment: Antitumor activity against human HCT-116 cells xenografted in BALB/c nude mouse assessed as decrease in AT13387-induced HSP70 protein expression in tumor at 30 to 60 mg/kg, ip administered every other day for 14 days by Western blot analysis; format: functional, organism-based; conditions: dose 30-60 mg/kg, time 14.0 day
[3] = target: T2, Serine/threonine-protein phosphatase 5 (Homo sapiens) (UniProt P53041); experiment: Binding affinity to His-tagged human PP5 extracted from Escherichia coli BL21 at 200 uM by STD-NMR analysis; conditions: filed as activator
T2 sequence (whole entry): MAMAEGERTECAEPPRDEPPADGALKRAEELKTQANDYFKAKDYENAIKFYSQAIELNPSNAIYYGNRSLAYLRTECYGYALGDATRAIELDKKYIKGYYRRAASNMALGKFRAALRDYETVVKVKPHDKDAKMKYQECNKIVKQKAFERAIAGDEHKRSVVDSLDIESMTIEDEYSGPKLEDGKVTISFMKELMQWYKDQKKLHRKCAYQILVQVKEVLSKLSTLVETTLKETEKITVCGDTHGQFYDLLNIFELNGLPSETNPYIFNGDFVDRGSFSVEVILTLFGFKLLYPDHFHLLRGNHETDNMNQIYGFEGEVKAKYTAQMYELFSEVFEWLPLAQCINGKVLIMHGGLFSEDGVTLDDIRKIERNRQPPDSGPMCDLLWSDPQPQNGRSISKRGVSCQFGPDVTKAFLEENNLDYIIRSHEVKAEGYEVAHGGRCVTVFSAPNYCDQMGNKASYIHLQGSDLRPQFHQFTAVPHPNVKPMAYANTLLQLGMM

Homo sapiens = species: Homo sapiens; experiment: Inhibition of PP2A (unknown origin) using DiFMUP as substrate at 0.01 to 1000 uM; conditions: dose 0.01-1000 µM
[4] = test system: T3, Serine/threonine-protein phosphatase 5 (Homo sapiens), P53041 [E428A]; experiment: Activation of PP5 E428A mutant (unknown origin) using pNPP as substrate assessed as increase in phosphatase activity at 10 to 200 uM incubated for 30 mins by spectrophotometric analysis; conditions: dose 10-200 µM
T3 sequence (whole entry): T2 sequence (whole entry) with E428A

SW-620 = experiment: Enhancement of HSP90 inhibitor AT13387-induced antiproliferative activity against human SW620 cells assessed as fold change in HSP90 inhibitor AT13387 IC50 at 50 uM incubated for 72 hrs by CCK8 assay; format: functional
[5] = target: T2, Serine/threonine-protein phosphatase 5 (Homo sapiens); experiment: Activation of PP5 in human HCT-116 cells assessed as decrease in intracellular S13 residue phosphorylated CDC37 level incubated for 24 hrs by Western blot analysis; format: cell-based; conditions: filed as activator, dose <= 100.0 µM
[6] = target: T2, Serine/threonine-protein phosphatase 5 (Homo sapiens); experiment: Activation of PP5 in human HCT-116 cells assessed as decrease in intracellular S13 residue phosphorylated CDC37 level at 100 uM by Western blot analysis; format: cell-based; conditions: filed as activator, time <= 24.0 hrs, TDE = time-dependent effect
HCT-116 [7] = experiment: Downregulation of AT13387-induced HSP40 mRNA expression in human HCT-116 cells at 50 uM incubated for 24 hrs by qRT-PCR analysis; format: functional, cell-based
[8] = target: Serine/threonine-protein phosphatase 5 (Homo sapiens, UniProt P53041, K430A); experiment: Binding affinity to PP5 K430A mutant (unknown origin) assessed as dissociation constant by ITC analysis
[9] = test system: T4, Serine/threonine-protein phosphatase 5 (Homo sapiens), P53041 [V429A]; experiment: Activation of PP5 V429A mutant (unknown origin) using pNPP as substrate assessed as increase in phosphatase activity at 10 to 200 uM incubated for 30 mins by spectrophotometric analysis; conditions: dose 10-200 µM
T4 sequence (whole entry): T2 sequence (whole entry) with V429A

Serine/threonine-protein phosphatase 5, sequence (P53041 2-499 K430A limits assumed): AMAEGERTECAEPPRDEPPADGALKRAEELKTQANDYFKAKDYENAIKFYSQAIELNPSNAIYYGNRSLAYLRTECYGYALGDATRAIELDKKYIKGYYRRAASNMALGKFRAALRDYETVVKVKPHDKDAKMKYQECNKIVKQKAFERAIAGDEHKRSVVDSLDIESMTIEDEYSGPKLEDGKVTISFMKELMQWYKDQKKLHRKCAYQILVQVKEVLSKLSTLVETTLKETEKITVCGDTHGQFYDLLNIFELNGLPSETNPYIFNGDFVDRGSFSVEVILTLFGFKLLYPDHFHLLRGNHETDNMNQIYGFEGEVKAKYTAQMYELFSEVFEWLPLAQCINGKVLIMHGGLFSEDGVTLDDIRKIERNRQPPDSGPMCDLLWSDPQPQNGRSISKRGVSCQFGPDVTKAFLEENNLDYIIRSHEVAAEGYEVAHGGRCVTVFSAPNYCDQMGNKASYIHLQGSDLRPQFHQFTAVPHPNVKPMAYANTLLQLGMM

inhibition [1]: inactive
Activity [3]: Active
inhibition (Homo sapiens): inactive
Activity [4]: inactive
Activity [5]: Dose-Dependent Effect
Activity [6]: Tde
Kd [8]: 37.2 µM
Activity [9]: inactive
SMILES: N=c1oc2cc(F)cc(F)c2cc1C(N)=S
Activity (HCT-116 [2]): Active
fold change (FC) (SW-620): 2
Activity (HCT-116 [7]): Active
